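Growth conditions: 96-well plates. Treatment: test compound, 48 hours, 5 concentrations. Analysis: linear interpolation between bracketing concentrations; unreached endpoints set to highest concentration. Definition used: TGI = concentration required for complete inhibition of growth.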
Assays:
Assay in all cases: DTP human tumour cell line panel, 48 h
LOX IMVI melanoma = system: LOX IMVI melanoma
786-0 renal = system: 786-0 renal
XF 498 CNS = system: XF 498 CNS
MCF7 breast = system: MCF7 breast
SF-268 CNS = system: SF-268 CNS
M19-MEL melanoma = system: M19-MEL melanoma
CAKI-1 renal = system: CAKI-1 renal
NCI/ADR-RES ovarian = system: NCI/ADR-RES ovarian
PC-3 prostate = system: PC-3 prostate
DMS 114 small cell lung = system: DMS 114 small cell lung
TK-10 renal = system: TK-10 renal
SF-539 CNS = system: SF-539 CNS
UACC-257 melanoma = system: UACC-257 melanoma
EKVX NSCLC = system: EKVX NSCLC
OVCAR-3 ovarian = system: OVCAR-3 ovarian
A549 NSCLC = system: A549 NSCLC
ACHN renal = system: ACHN renal
NCI-H23 lung = system: NCI-H23 lung
RXF 393 renal = system: RXF 393 renal
SNB-19 CNS = system: SNB-19 CNS
A498 renal = system: A498 renal
RPMI-8226 leukemia = system: RPMI-8226 leukemia
CCRF-CEM leukemia = system: CCRF-CEM leukemia
OVCAR-8 ovarian = system: OVCAR-8 ovarian
HOP-92 NSCLC = system: HOP-92 NSCLC
HOP-62 NSCLC = system: HOP-62 NSCLC
HS 578T breast = system: HS 578T breast
MOLT-4 leukemia = system: MOLT-4 leukemia
MDA-N = system: MDA-N
SNB-75 CNS = system: SNB-75 CNS
SK-OV-3 ovarian = system: SK-OV-3 ovarian
SNB-78 CNS = system: SNB-78 CNS
COLO 205 colon = system: COLO 205 colon
SF-295 CNS = system: SF-295 CNS
SK-MEL-28 melanoma = system: SK-MEL-28 melanoma
NCI-H460 lung = system: NCI-H460 lung
HCC-2998 colon = system: HCC-2998 colon
SK-MEL-2 melanoma = system: SK-MEL-2 melanoma
NCI-H522 lung = system: NCI-H522 lung
U251 CNS = system: U251 CNS
DU-145 prostate = system: DU-145 prostate
KM12 colon = system: KM12 colon
SR leukemia = system: SR leukemia
UACC-62 melanoma = system: UACC-62 melanoma
T-47D breast = system: T-47D breast
HT29 colon = system: HT29 colon
MDA-MB-231 breast = system: MDA-MB-231 breast
MDA-MB-435 = system: MDA-MB-435
IGROV1 ovarian = system: IGROV1 ovarian
HCT-15 colon = system: HCT-15 colon
SW-620 colon = system: SW-620 colon
MALME-3M melanoma = system: MALME-3M melanoma
HOP-18 NSCLC = system: HOP-18 NSCLC
HCT-116 colon = system: HCT-116 colon
NCI-H226 lung = system: NCI-H226 lung
BT-549 breast = system: BT-549 breast
SN12C renal = system: SN12C renal
RXF-631 renal = system: RXF-631 renal
HL-60(TB) leukemia = system: HL-60(TB) leukemia
LXFL 529 NSCLC = system: LXFL 529 NSCLC
OVCAR-5 ovarian = system: OVCAR-5 ovarian
UO-31 renal = system: UO-31 renal
K-562 leukemia = system: K-562 leukemia
SK-MEL-5 melanoma = system: SK-MEL-5 melanoma
M14 melanoma = system: M14 melanoma
OVCAR-4 ovarian = system: OVCAR-4 ovarian
DLD-1 colon = system: DLD-1 colon
KM20L2 colon = system: KM20L2 colon

SMILES: CC(=O)OCC1OC(n2cc(F)c(=O)[nH]c2=O)C(OC(C)=O)C1OC(C)=O (stereo not drawn)
- TGI (LOX IMVI melanoma): > 63.9 µM
- TGI (786-0 renal): > 94.5 µM
- TGI (XF 498 CNS): > 100 µM
- TGI (MCF7 breast): > 45.3 µM
- TGI (SF-268 CNS): > 100 µM
- TGI (M19-MEL melanoma): > 100 µM
- TGI (CAKI-1 renal): > 100 µM
- TGI (NCI/ADR-RES ovarian): > 100 µM
- TGI (PC-3 prostate): > 100 µM
- TGI (DMS 114 small cell lung): > 100 µM
- TGI (TK-10 renal): > 100 µM
- TGI (SF-539 CNS): 52.1 µM
- TGI (UACC-257 melanoma): > 100 µM
- TGI (EKVX NSCLC): > 100 µM
- TGI (OVCAR-3 ovarian): 91.8 µM
- TGI (A549 NSCLC): > 100 µM
- TGI (ACHN renal): > 100 µM
- TGI (NCI-H23 lung): > 100 µM
- TGI (RXF 393 renal): 99.2 µM
- TGI (SNB-19 CNS): > 100 µM
- TGI (A498 renal): > 100 µM
- TGI (RPMI-8226 leukemia): > 100 µM
- TGI (CCRF-CEM leukemia): > 100 µM
- TGI (OVCAR-8 ovarian): > 100 µM
- TGI (HOP-92 NSCLC): > 55.8 µM
- TGI (HOP-62 NSCLC): > 96.5 µM
- TGI (HS 578T breast): > 100 µM
- TGI (MOLT-4 leukemia): > 77.7 µM
- TGI (MDA-N): > 56.2 µM
- TGI (SNB-75 CNS): > 100 µM
- TGI (SK-OV-3 ovarian): > 100 µM
- TGI (SNB-78 CNS): > 100 µM
- TGI (COLO 205 colon): > 83.2 µM
- TGI (SF-295 CNS): > 100 µM
- TGI (SK-MEL-28 melanoma): > 100 µM
- TGI (NCI-H460 lung): > 100 µM
- TGI (HCC-2998 colon): > 100 µM
- TGI (SK-MEL-2 melanoma): > 100 µM
- TGI (NCI-H522 lung): > 95.5 µM
- TGI (U251 CNS): > 95.5 µM
- TGI (DU-145 prostate): > 100 µM
- TGI (KM12 colon): > 100 µM
- TGI (SR leukemia): > 78.5 µM
- TGI (UACC-62 melanoma): > 100 µM
- TGI (T-47D breast): > 100 µM
- TGI (HT29 colon): > 100 µM
- TGI (MDA-MB-231 breast): > 56.2 µM
- TGI (MDA-MB-435): > 100 µM
- TGI (IGROV1 ovarian): > 100 µM
- TGI (HCT-15 colon): > 100 µM
- TGI (SW-620 colon): > 100 µM
- TGI (MALME-3M melanoma): > 100 µM
- TGI (HOP-18 NSCLC): > 100 µM
- TGI (HCT-116 colon): 71.8 µM
- TGI (NCI-H226 lung): > 100 µM
- TGI (BT-549 breast): > 100 µM
- TGI (SN12C renal): > 100 µM
- TGI (RXF-631 renal): > 100 µM
- TGI (HL-60(TB) leukemia): > 100 µM
- TGI (LXFL 529 NSCLC): > 100 µM
- TGI (OVCAR-5 ovarian): > 100 µM
- TGI (UO-31 renal): > 96.1 µM
- TGI (K-562 leukemia): > 100 µM
- TGI (SK-MEL-5 melanoma): > 100 µM
- TGI (M14 melanoma): > 100 µM
- TGI (OVCAR-4 ovarian): > 90.3 µM
- TGI (DLD-1 colon): > 100 µM
- TGI (KM20L2 colon): > 100 µM

Source: PubChem BioAssay (NCI)
